Where two headings read alike, the source gives them in different places.
Columns and labels:
CDK12 = CDK12 (Homo sapiens (Human), UniProt Q9NYV4); assay: LANCE Ultra kinase assay, CDK12; assay type: biochemical
Description: (§1) The inhibitory activities of the test compound on the kinases were evaluated by LANCE Ultra assay, which was used for detecting ATP-dependent phosphorylation of a ULight-4E-BP1 (Thr37/Thr46) substrate peptide (150 nM). In short, enzymatic reactions were performed in a reaction buffer (25 mM HEPES (pH 7.5), 10 mM MgCl2, 0.01% BSA, 0.01% Tween 20, and 1 mM DTT). The assay was performed in a 384-well plate (6 μL). A final concentration of an ATP substrate was […], and a final concentration of the ULight-4E-BP1 (Thr37/Thr46) substrate peptide was 150 nM. A final concentration of CDK9, CDK12, or CDK13 was 0.3, 30, or 30 nM, respectively. Pre-incubation of the compound and the enzyme was performed at room temperature for 60 min. The reaction was stopped by adding 10 mM EDTA and 0.15 nM Eu-labeled anti-phospho-eIF4E-binding protein 1 (Thr37/46) antibody in LANCE detection buffer after incubation at room temperature for 15, 60, or 90 min. Time-resolved fluorescence (excitation, 320 nm; emission donor, 615 nm; emission acceptor, 665 nm) was monitored using an EnVision spectrophotometer (PerkinElmer). Readings were computed as (acceptor count/donor count)×1000. IC50 values were derived by fitting a sigmoidal dose-response curve to a plot of assay readouts of inhibitor concentrations. All fittings were computed using program Prism 5.03 (GraphPad Software, San Diego, CA).

VCaP cell = VCaP cell proliferation, CellTiter-Glo Luminescent Cell Viability Assay; assay type: cell-based; details: Homo sapiens, VCaP cells
Description: The VCaP cell proliferation activity was determined by CellTiter-Glo Luminescent Cell Viability Assay (Promega, Madison, WI). The cells were inoculated on a 96-well plate in their respective culture mediums, and incubated in an incubator with 5% CO2 at 37° C. After incubation overnight, serial dilutions of the compound were prepared, and added into the 96-well plate. A CellTiter-Glo reagent (volume equal to the volume of the cell culture medium present in each well) was added (e.g., 100 μL of the reagent was added into 100 μL of the cell culture medium in the 96-well plate). The contents were mixed on an orbital shaker for 2 min to induce the cell lysis. The cells in the 96-well plate were incubated at room temperature for 10 min, to stabilize the luminescent signal. Luminescence was recorded: the luminescent signal for each well was acquired using an Infinite M1000 Pro plate reader (Tecan, Zurich, Switzerland), and the data was analyzed using GraphPad Prism software (GraphPad Software Inc, La Jolla, CA).

CDK13 = CDK13 (Homo sapiens (Human), UniProt Q14004); assay: LANCE Ultra kinase assay, CDK13; assay type: biochemical
Description: as §1

CDK9 = CDK9 (Homo sapiens (Human), UniProt P50750); assay: LANCE Ultra kinase assay, CDK9; assay type: biochemical
Description: as §1

[1] = 30 nM enzyme, 60 min pre-incubation, ULight-4E-BP1 150 nM, read-out: CDK12 IC50
[2] = 30 nM enzyme, 60 min pre-incubation, ULight-4E-BP1 150 nM, read-out: CDK13 IC50

Chain of CDK12 (Q9NYV4 whole entry): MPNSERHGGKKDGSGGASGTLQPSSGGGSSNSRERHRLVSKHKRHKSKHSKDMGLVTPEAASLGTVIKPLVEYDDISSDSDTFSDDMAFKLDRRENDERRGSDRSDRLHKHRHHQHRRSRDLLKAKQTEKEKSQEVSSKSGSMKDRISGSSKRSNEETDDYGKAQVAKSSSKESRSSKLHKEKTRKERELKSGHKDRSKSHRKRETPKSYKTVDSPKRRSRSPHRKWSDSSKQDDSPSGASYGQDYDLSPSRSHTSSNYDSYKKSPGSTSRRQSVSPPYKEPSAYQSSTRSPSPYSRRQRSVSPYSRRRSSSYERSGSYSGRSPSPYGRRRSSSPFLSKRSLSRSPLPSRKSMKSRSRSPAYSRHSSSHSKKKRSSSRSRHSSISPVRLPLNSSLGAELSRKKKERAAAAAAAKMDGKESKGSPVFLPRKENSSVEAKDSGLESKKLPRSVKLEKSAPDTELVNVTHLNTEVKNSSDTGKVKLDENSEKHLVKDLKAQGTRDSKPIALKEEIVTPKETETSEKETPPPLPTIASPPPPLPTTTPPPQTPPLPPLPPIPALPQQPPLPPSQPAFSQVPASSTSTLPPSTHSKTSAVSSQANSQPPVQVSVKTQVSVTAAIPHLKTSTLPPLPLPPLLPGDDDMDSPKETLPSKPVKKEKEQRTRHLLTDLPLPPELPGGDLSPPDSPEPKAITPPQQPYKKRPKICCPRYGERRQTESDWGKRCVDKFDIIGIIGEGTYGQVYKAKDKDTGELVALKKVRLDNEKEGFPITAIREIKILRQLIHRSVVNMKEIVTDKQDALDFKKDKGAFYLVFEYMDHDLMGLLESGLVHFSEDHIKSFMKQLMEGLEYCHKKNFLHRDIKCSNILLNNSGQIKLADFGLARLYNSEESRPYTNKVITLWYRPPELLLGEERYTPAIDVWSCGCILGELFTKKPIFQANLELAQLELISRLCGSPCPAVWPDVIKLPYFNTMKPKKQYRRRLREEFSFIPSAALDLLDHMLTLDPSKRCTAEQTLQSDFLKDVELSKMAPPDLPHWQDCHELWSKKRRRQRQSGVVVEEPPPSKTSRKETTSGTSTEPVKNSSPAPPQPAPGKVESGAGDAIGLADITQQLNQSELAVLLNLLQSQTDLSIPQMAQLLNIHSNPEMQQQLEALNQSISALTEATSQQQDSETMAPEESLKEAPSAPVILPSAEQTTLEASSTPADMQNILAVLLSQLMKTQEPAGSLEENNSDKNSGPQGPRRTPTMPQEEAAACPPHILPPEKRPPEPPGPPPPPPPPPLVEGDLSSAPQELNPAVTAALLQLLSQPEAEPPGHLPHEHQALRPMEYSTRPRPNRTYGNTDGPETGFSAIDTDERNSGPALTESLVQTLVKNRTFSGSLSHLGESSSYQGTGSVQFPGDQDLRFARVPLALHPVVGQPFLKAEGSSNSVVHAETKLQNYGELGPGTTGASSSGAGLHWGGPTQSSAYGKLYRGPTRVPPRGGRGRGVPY
Chain of CDK12 (O75909 whole entry partner): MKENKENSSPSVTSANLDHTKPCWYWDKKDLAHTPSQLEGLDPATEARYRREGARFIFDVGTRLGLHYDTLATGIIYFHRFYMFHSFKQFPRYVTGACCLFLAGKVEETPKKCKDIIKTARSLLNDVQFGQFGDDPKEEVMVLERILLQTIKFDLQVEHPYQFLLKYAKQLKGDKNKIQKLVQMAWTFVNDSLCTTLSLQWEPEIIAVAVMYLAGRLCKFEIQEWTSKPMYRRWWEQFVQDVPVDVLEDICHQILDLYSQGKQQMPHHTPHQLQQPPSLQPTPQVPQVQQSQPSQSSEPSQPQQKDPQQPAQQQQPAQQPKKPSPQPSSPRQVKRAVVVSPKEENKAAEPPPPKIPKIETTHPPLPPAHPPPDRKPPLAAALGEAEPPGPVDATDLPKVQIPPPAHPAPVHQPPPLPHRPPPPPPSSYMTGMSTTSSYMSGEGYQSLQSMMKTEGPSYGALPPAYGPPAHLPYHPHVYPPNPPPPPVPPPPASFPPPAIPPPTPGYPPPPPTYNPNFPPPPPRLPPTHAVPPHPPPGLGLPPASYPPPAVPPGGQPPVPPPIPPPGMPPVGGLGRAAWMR
Chain of CDK13 (Q14004 whole entry, looked up): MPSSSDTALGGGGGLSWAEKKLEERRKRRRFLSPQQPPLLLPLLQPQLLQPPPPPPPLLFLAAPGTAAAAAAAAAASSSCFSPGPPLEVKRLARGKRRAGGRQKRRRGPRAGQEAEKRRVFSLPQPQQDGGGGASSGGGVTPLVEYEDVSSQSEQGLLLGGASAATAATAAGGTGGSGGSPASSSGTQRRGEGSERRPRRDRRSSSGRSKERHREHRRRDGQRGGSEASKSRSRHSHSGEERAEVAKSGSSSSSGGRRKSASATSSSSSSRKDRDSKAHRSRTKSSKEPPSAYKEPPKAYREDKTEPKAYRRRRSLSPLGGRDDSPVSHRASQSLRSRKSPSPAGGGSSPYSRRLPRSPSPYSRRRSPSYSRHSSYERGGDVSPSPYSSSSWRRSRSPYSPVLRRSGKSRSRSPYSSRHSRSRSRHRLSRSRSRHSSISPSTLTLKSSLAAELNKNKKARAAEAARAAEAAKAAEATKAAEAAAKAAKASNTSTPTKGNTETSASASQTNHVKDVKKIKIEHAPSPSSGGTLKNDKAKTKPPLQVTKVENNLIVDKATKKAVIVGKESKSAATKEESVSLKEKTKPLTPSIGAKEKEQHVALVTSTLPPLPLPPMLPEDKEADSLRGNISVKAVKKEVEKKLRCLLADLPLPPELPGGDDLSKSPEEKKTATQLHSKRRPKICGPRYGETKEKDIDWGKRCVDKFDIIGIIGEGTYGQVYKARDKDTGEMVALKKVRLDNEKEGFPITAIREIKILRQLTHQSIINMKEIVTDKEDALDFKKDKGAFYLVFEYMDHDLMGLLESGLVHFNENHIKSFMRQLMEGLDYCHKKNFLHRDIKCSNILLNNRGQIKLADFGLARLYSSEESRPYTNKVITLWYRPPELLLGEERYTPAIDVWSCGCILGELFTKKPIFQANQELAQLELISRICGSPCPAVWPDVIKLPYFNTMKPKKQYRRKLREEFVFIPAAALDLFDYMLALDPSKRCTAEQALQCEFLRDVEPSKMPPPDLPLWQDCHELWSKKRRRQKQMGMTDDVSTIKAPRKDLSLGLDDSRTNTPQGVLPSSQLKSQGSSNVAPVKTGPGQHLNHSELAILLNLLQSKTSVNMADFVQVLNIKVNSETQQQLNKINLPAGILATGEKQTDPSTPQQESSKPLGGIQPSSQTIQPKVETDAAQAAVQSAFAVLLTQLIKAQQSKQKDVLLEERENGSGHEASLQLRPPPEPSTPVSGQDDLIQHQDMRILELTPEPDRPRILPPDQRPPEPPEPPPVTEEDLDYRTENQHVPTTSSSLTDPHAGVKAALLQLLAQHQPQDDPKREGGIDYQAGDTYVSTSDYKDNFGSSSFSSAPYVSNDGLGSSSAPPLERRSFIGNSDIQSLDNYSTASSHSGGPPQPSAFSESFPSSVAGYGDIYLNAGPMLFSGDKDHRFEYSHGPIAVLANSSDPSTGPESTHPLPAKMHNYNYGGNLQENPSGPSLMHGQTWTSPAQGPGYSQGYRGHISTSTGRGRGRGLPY
Chain of CDK13 (O75909 whole entry partner, looked up): as the sequence (O75909 whole entry partner) above
Chain of CDK9 (P50750 whole entry, looked up, species assumed): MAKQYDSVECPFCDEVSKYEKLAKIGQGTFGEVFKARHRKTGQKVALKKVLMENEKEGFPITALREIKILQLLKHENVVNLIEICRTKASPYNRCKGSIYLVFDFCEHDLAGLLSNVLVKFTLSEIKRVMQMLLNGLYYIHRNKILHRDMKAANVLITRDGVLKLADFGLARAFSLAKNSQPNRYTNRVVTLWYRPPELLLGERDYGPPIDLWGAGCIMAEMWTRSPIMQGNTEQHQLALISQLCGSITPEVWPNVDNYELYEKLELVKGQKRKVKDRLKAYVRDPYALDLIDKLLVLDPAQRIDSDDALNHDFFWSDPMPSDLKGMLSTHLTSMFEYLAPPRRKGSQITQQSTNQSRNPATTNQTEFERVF
Chain of CDK9 (O60563 whole entry partner, looked up, species assumed): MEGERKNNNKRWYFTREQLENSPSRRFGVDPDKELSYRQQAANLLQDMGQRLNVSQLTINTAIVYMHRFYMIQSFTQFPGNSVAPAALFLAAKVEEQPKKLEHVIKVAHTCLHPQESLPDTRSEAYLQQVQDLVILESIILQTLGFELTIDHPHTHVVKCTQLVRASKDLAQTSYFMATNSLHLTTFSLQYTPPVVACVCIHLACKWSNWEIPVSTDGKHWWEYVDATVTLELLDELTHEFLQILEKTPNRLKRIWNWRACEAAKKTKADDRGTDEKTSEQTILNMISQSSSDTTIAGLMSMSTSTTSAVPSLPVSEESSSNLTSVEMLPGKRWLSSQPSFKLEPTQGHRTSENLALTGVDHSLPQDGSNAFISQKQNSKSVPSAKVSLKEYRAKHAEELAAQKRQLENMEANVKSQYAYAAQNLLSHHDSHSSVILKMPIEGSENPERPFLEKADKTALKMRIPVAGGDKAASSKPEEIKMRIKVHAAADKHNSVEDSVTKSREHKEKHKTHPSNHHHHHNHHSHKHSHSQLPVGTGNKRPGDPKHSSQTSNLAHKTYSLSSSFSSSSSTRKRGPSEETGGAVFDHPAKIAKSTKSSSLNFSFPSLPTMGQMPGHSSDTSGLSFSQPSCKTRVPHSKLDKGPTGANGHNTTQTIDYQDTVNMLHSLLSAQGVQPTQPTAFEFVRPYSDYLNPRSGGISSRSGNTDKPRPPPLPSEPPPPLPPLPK

IC50 (CDK12; [1]) [nM]	IC50 (VCaP cell) [nM]	IC50 (CDK13; [2]) [nM]	SMILES	IC50 (CDK12) [nM]	inhibitory activities on CDK12/13 kinase (CDK12) (CDK12; in words)	IC50 (CDK9; 0.3 nM enzyme, 60 min pre-incubation, ULight-4E-BP1 150 nM) [nM]	selectivity for CDK9 kinase (CDK9; CDK12/13 versus CDK9, in words)	IC50 (CDK13) [nM]	inhibitory activities on CDK12/13 kinase (CDK13) (CDK13; in words)
15 to 50	15 to 50	15 to 50	C=CC(=O)Nc1cc(N(C(=O)NCc2ccccc2)[C@H]2CC[C@H](Nc3ccc(C#N)cn3)CC2)ccc1N1CCN(C(C)=O)CC1 [YJZ5111, N-(2-(4-acetylpiperazin-1-yl)-5-(3-benzyl-1-((1r,4r)-4-((5-cyanopyridin-2-yl)amino)cyclohexyl)ureido)phenyl)acrylamide]						
> 500	50 to 500	50 to 500	C=CC(=O)Nc1cccc(N(C(=O)NCc2ccccc2)[C@H]2CC[C@H](Nc3ccc(C#N)cn3)CC2)c1 [YJZ4156, N-(3-(3-benzyl-1-((1r,4r)-4-((5-cyanopyridin-2-yl)amino)cyclohexyl)ureido)phenyl)acrylamide]						
> 500	50 to 500	50 to 500	C=CC(=O)Nc1cc(N(C(=O)NCc2ccccc2)[C@H]2CC[C@H](Nc3ccc(C#N)cn3)CC2)ccc1N1CCC(N(C)C)C1 (stereo partly shown) [YJZ6082]						
15 to 50	< 15	15 to 50	C=CC(=O)Nc1cc(N(C(=O)NCc2ccccc2)[C@H]2CC[C@H](Nc3ccc(C#N)cn3)CC2)ccc1N1CCN(C)[C@@H](C)C1 [YJZ6093]						
50 to 500	< 15	50 to 500	C=CC(=O)Nc1cc(N(C(=O)NCc2ccccc2)[C@H]2CC[C@H](Nc3ccc(C#N)cn3)CC2)ccc1N(C)CCN(C)C [YJZ5125, N-(5-(3-benzyl-1-((1r,4r)-4-((5-cyanopyridin-2-yl)amino)cyclohexyl)ureido)-2-((2-(dimethylamino)ethyl)(methyl)amino)phenyl)acrylamide]						
50 to 500	15 to 50	50 to 500	C=CC(=O)Nc1cc(N(C(=O)NCc2ccccc2)[C@H]2CC[C@H](Nc3ccc(C#N)cn3)CC2)ccc1N1CCN(C2COC2)CC1 [YJZ6028, N-(5-(3-benzyl-1-((1r,4r)-4-((5-cyanopyridin-2-yl)amino)cyclohexyl)ureido)-2-(4-(oxetan-3-yl)piperazin-1-yl)phenyl)acrylamide]						

SMILES	IC50 (CDK12; [1]) [nM]	IC50 (VCaP cell) [nM]	IC50 (CDK13; [2]) [nM]	IC50 (CDK12) [nM]	inhibitory activities on CDK12/13 kinase (CDK12) (CDK12; in words)	IC50 (CDK9; 0.3 nM enzyme, 60 min pre-incubation, ULight-4E-BP1 150 nM) [nM]	selectivity for CDK9 kinase (CDK9; CDK12/13 versus CDK9, in words)	IC50 (CDK13) [nM]	inhibitory activities on CDK12/13 kinase (CDK13) (CDK13; in words)
C=CC(=O)Nc1cc(N(C(=O)NCc2ccccc2)[C@H]2CC[C@H](Nc3ccc(C#N)cn3)CC2)ccc1N1CCC(N(C)C)CC1 [YJZ5118, N-(5-(3-benzyl-1-((1r,4r)-4-((5-cyanopyridin-2-yl)amino)cyclohexyl)ureido)-2-(4-(dimethylamino)piperidin-1-yl)phenyl)acrylamide]		< 15		15 to 50	strong	> 500	good selectivity	15 to 50	strong

From US20250100994A1, “CDK12/13 COVALENT INHIBITORS OR PHARMACEUTICAL COMPOSITION THEREOF, AND USES THEREOF” (The Regents of the University of Michigan, priority 2023, published 2025)
